Holding throughout (type): cell-based, Mycobacterium tuberculosis
One experiment deals with Mtb H37Rv.
Experiment [1] deals with 4-hydroxy-2-pyridone resistance mutants of Mtb.
In experiment [2] the test system is H37Rv∷pMV262-InhA strains. Kind of experiment: microbe, parasite or virus in culture. The following applies: for MIC50: Mycobacterium tuberculosis, H37RV, read-out: Compound MIC50.

Molecules are shown by their SMILES. Converted amounts (≈) assume the structure as drawn. “And” between values parts separate entries of the source, which are not always exact repeats. Identical values can stand only once.

In the case of `CC(C)Cc1cc(O)c(-c2ccccc2)c(=O)[nH]1` [NITD-529, 4-hydroxy-6-isobutyl-3-phenylpyridin-2(1H)-one], in the experiment with Mtb H37Rv, the Mutation frequency is 1.2×10^-8 and the frequency of resistance was 1 × 10^−8. Besides, in experiment [1], the “Compound MIC50” value was above 40 µM and the “fold more resistant than the parental H37Rv strain” value was “at least 25 fold”. Moreover, the MIC50 in experiment [2] was determined as 2.59 µM (≈ 0.63 µg/mL).
`CCc1cc(C(N)=S)ccn1` [ethionamide]: the “resistance, MIC50 fold” value in experiment [1] was above 3 fold.
Consider `NNC(=O)c1ccncc1` [isoniazid], for which, in the experiment with Mtb H37Rv, the Mutation frequency result is “∼ 1× 10^-6”. Also, the “resistance, MIC50 fold” value in experiment [1] was above 3 fold. Also, in experiment [2], the “MIC50 fold shift with the Mtb H37Rv strain” value was 0.51 (2.04×) and the MIC50 worked out at 0.51 µM (≈ 0.0699 µg/mL).
For the compound `[H]/N=C(/N)N[C@H]1[C@H](O)[C@@H](O)[C@H](O[C@@H]2O[C@@H](C)[C@](O)(C=O)[C@H]2O[C@@H]2O[C@@H](CO)[C@H](O)[C@@H](O)[C@@H]2NC)[C@@H](N/C(N)=N\[H])[C@@H]1O` [streptomycin], the “Compound MIC50” value in experiment [1] was 0.1 µM and 0.09 µM and 0.08 µM and 0.06 µM; in experiment [2], 0.084 µM and 0.079 µM and 0.075 µM. The MIC50 in experiment [2] was 0.074 µM (≈ 0.043 µg/mL).

Source of the values: paper PMC4383039 (Science translational medicine, 2015).
